Test results published in the NIST ThermoML archive (doi:10.1016/j.jct.2016.10.034).
Numbers after ± are expanded uncertainties.

Assay: xn = mol fraction of the nth substance listed
Settings: 100 kPa, Liquid; for viscosity: Falling or rolling sphere viscometry; for mass density: Vibrating tube method

CC(=O)[O-].CC[N+]1(C)CCCC1 [1-ethyl-1-methylpyrrolidinium acetate] + O
Settings	mass density [kg/m3]	viscosity [mPa·s]
298.15 K, x1 = 0.1008	1046.6 ± 1.1	6.95 ± 0.7
298.15 K, x1 = 0.2083	1066.7 ± 1	16.9 ± 1.7
298.15 K, x1 = 0.3171	1070.7 ± 1	29 ± 2.9
298.15 K, x1 = 0.4126	1070.8 ± 1.1	41.1 ± 4.1
298.15 K, x1 = 0.481	1070.2 ± 1.1	50.9 ± 5.1
298.15 K, x1 = 0.5857	1069.2 ± 1.2	69.3 ± 7
298.15 K, x1 = 0.6728	1068.1 ± 1.4	88.3 ± 9
298.15 K, x1 = 0.766	1066.9 ± 1.6	116 ± 12
298.15 K, x1 = 0.8963	1065.4 ± 1.9	173 ± 19
303.15 K, x1 = 0.1008	1043.6 ± 1	5.96 ± 0.6
303.15 K, x1 = 0.2083	1063.6 ± 1	14.2 ± 1.4
303.15 K, x1 = 0.3171	1067.6 ± 1	24.2 ± 2.4
303.15 K, x1 = 0.4126	1067.8 ± 1.1	34.5 ± 3.5
303.15 K, x1 = 0.481	1067.2 ± 1.1	42.8 ± 4.3
303.15 K, x1 = 0.5857	1066.3 ± 1.2	57.2 ± 5.8
303.15 K, x1 = 0.6728	1065.3 ± 1.4	71.4 ± 7.2
303.15 K, x1 = 0.766	1064 ± 1.6	91.3 ± 9.4
303.15 K, x1 = 0.8963	1062.5 ± 1.9	134 ± 14
308.15 K, x1 = 0.1008	1040.7 ± 1	5.32 ± 0.53
308.15 K, x1 = 0.2083	1060.3 ± 1	11.9 ± 1.2
308.15 K, x1 = 0.3171	1064.5 ± 1	19.7 ± 2
308.15 K, x1 = 0.4126	1064.8 ± 1.1	28 ± 2.8
308.15 K, x1 = 0.481	1064.2 ± 1.1	35.1 ± 3.5
308.15 K, x1 = 0.5857	1063.1 ± 1.2	46.7 ± 4.7
308.15 K, x1 = 0.6728	1062.2 ± 1.4	57.6 ± 5.8
308.15 K, x1 = 0.766	1060.7 ± 1.5	74.2 ± 7.5
308.15 K, x1 = 0.8963	1059.4 ± 1.9	107 ± 11
313.15 K, x1 = 0.1008	1037.7 ± 1	4.77 ± 0.48
313.15 K, x1 = 0.2083	1057.1 ± 1	10.6 ± 1.1
313.15 K, x1 = 0.3171	1061.4 ± 1	16.9 ± 1.7
313.15 K, x1 = 0.4126	1061.8 ± 1.1	23.5 ± 2.4
313.15 K, x1 = 0.481	1061.3 ± 1.1	28.9 ± 2.9
313.15 K, x1 = 0.5857	1060.4 ± 1.2	38.7 ± 3.9
313.15 K, x1 = 0.6728	1059.4 ± 1.4	48.5 ± 4.9
313.15 K, x1 = 0.766	1057.9 ± 1.5	62.8 ± 6.4
313.15 K, x1 = 0.8963	1056.6 ± 1.9	88.5 ± 9.1
318.15 K, x1 = 0.1008	1034.6 ± 1	4.3 ± 0.43
318.15 K, x1 = 0.2083	1053.8 ± 1	9.09 ± 0.91
318.15 K, x1 = 0.3171	1058.2 ± 1	14 ± 1.4
318.15 K, x1 = 0.4126	1058.7 ± 1.1	19.7 ± 2
318.15 K, x1 = 0.481	1058.3 ± 1.1	23.6 ± 2.4
318.15 K, x1 = 0.5857	1057.5 ± 1.2	30.3 ± 3.1
318.15 K, x1 = 0.6728	1056.6 ± 1.4	38.4 ± 3.9
318.15 K, x1 = 0.766	1055 ± 1.5	51.4 ± 5.2
318.15 K, x1 = 0.8963	1053.7 ± 1.9	70.8 ± 7.2
323.15 K, x1 = 0.1008	1031.5 ± 1	3.87 ± 0.39
323.15 K, x1 = 0.2083	1050.5 ± 1	7.91 ± 0.79
323.15 K, x1 = 0.3171	1055.1 ± 1	11.6 ± 1.2
323.15 K, x1 = 0.4126	1055.7 ± 1.1	16 ± 1.6
323.15 K, x1 = 0.481	1055.3 ± 1.1	19.8 ± 2
323.15 K, x1 = 0.5857	1054.5 ± 1.2	26.2 ± 2.6
323.15 K, x1 = 0.6728	1053.6 ± 1.4	32.7 ± 3.3
323.15 K, x1 = 0.766	1052.2 ± 1.5	42.5 ± 4.3
323.15 K, x1 = 0.8963	1050.9 ± 1.8	58 ± 5.9
328.15 K, x1 = 0.1008	1028.3 ± 1	3.523 ± 0.35
328.15 K, x1 = 0.2083	1047.2 ± 1	6.81 ± 0.68
328.15 K, x1 = 0.3171	1051.9 ± 1	10 ± 1
328.15 K, x1 = 0.4126	1052.6 ± 1.1	13.5 ± 1.4
328.15 K, x1 = 0.481	1052.3 ± 1.1	15.8 ± 1.6
328.15 K, x1 = 0.5857	1051.6 ± 1.2	21.2 ± 2.1
328.15 K, x1 = 0.6728	1050.7 ± 1.4	28 ± 2.8
328.15 K, x1 = 0.766	1049.3 ± 1.5	35.2 ± 3.6
328.15 K, x1 = 0.8963	1048 ± 1.8	48 ± 4.9
333.15 K, x1 = 0.1008	1025.1 ± 1	3.21 ± 0.32
333.15 K, x1 = 0.2083	1043.8 ± 1	6.14 ± 0.62
333.15 K, x1 = 0.3171	1048.7 ± 1	8.67 ± 0.87
333.15 K, x1 = 0.4126	1049.5 ± 1.1	11.5 ± 1.2
333.15 K, x1 = 0.481	1049.3 ± 1.1	13.5 ± 1.4
333.15 K, x1 = 0.5857	1048.5 ± 1.2	18.1 ± 1.8
333.15 K, x1 = 0.6728	1047.7 ± 1.3	23.2 ± 2.3
333.15 K, x1 = 0.766	1046.2 ± 1.5	29.1 ± 2.9
333.15 K, x1 = 0.8963	1045 ± 1.8	39.5 ± 4
338.15 K, x1 = 0.1008	1021.8 ± 1	2.94 ± 0.3
338.15 K, x1 = 0.2083	1040.5 ± 1	5.49 ± 0.55
338.15 K, x1 = 0.3171	1045.5 ± 1	7.52 ± 0.76
338.15 K, x1 = 0.4126	1046.4 ± 1.1	9.88 ± 0.99
338.15 K, x1 = 0.481	1046.2 ± 1.1	11.6 ± 1.2
338.15 K, x1 = 0.5857	1045.6 ± 1.2	15.4 ± 1.6
338.15 K, x1 = 0.6728	1044.9 ± 1.3	19.8 ± 2
338.15 K, x1 = 0.766	1043.5 ± 1.5	24.6 ± 2.5
338.15 K, x1 = 0.8963	1042.3 ± 1.8	32.6 ± 3.3
343.15 K, x1 = 0.1008	1018.5 ± 1	2.65 ± 0.27
343.15 K, x1 = 0.2083	1037.1 ± 1	4.78 ± 0.48
343.15 K, x1 = 0.3171	1042.2 ± 1	6.72 ± 0.68
343.15 K, x1 = 0.4126	1043.3 ± 1.1	8.58 ± 0.86
343.15 K, x1 = 0.481	1043.2 ± 1.1	10.1 ± 1
343.15 K, x1 = 0.5857	1042.6 ± 1.2	13.1 ± 1.3
343.15 K, x1 = 0.6728	1041.9 ± 1.3	16.9 ± 1.7
343.15 K, x1 = 0.766	1040.5 ± 1.5	20.9 ± 2.1
343.15 K, x1 = 0.8963	1039.3 ± 1.8	27.2 ± 2.8
348.15 K, x1 = 0.1008	1015.2 ± 1.1	2.46 ± 0.25
348.15 K, x1 = 0.2083	1033.6 ± 1.1	4.38 ± 0.44
348.15 K, x1 = 0.3171	1039 ± 1	5.79 ± 0.58
348.15 K, x1 = 0.4126	1040.1 ± 1.1	7.52 ± 0.76
348.15 K, x1 = 0.481	1040.1 ± 1.1	8.82 ± 0.89
348.15 K, x1 = 0.5857	1039.7 ± 1.2	11.4 ± 1.1
348.15 K, x1 = 0.6728	1039 ± 1.3	14.6 ± 1.5
348.15 K, x1 = 0.766	1037.6 ± 1.5	17.3 ± 1.8
348.15 K, x1 = 0.8963	1036.7 ± 1.8	22.4 ± 2.3
